According to the NIST ThermoML archive (doi:10.1021/je900470r):
Numbers after ± are expanded uncertainties.

Experiments:
[1] = refractive index (Na D-line) (dimensionless); details: 298.15 K; 101.33 kPa; Liquid; Standard Abbe refractometry
[2] = Liquid; for mass density: 298.15 K, 101.33 kPa

Compound | refractive index [1] | mass density [2] [kg/m3] | vapor or sublimation pressure ([2]; 352.68 K) [kPa] | vapor or sublimation pressure ([2]; 418.69 K) [kPa] | vapor or sublimation pressure ([2]; 351.46 K) [kPa]
CCC(C)=O [butanone] | 1.3761 ± 0.0005 | 799.62 ± 0.23 | 101.3 ± 0.2 | – | –
CCCCOC(=O)CC [butyl propanoate] | 1.3992 ± 0.0005 | 870.88 ± 0.48 | – | 101.3 ± 0.3 | –
CCO [ethanol] | 1.3594 ± 0.0005 | 786.47 ± 0.5 | – | – | 101.3 ± 0.2
CC(C)O [propan-2-ol] | 1.3754 ± 0.0005 | 780.75 ± 0.24 | – | – | –
